The values that follow come from US11878063B2, “Engineered ligands and uses thereof” (Children's Medical Center Corporation, priority 2019, dated 2024).

The test system of one test is PTHR1YFPΔECD. Put plainly: cAMP induction in HEK293 cells stably expressing PTHR1YFPΔECD (YFP replaces extracellular domain). The test is classed as cell-based, human. How it is done:
Measurement of cAMP response. These assays were performed as previously described^27. Briefly, HEK-293-derived cell lines that stably express the Glosensor cAMP reporter (Promega Corp.)^30 and PTHR1, a PTHR1 variant, or PTHR2 were seeded into white sided 96 well plates (50,000 cells/well) and grown to confluency. Confluent monolayers of cells were pre-incubated with CO2 independent medium containing D-luciferin (0.5 mM) at 37° C. until a stable baseline level of luminescence was established (20 min). Varying concentrations of ligands were then added, and the time course of luminescence response was recorded using BioTek plate reader.
(§1) Data calculations. Data were processed using Microsoft Excel and GraphPad Prism 6. Data from cAMP dose-response assays were analyzed using a sigmoidal dose-response model with variable slope. Data sets were statistically compared by using Student's t test (two-tailed) assuming unequal variances for the two sets.
The portion of PTHR1 encoded by exon 2 is not resolved in structural studies (FIG. 12—Panel d)^13, 14, 17, is not important for ligand binding^18, and in past work has been targeted as a site for receptor modification^18, 19. A construct was generated that encodes a PTHR1 variant in which a 14-residue fragment from exon 2 was replaced with a 14-mer epitope tag from the intracellular protein UBC6e (PTHR16E, FIG. 12—Panel d)^20. A receptor construct in which a pH-sensitive green fluorescent protein variant (GFP) was inserted into the portion of the receptor encoded by exon 2 (PTHR1GFP in FIGS. 17A to 17C)^19. Another version of PTHR1 in which yellow fluorescent protein (YFP) replaces the entire extracellular domain (PTHR1YFPΔECD, FIG. 12—Panel e)^21, was also used.

Another test deals with Mice (CD1 female). Description: Calcemic response: blood ionized calcium in mice after subcutaneous injection. The settings on record: 35 nmol/kg subcutaneous. The test is classed as in vivo, mouse. How it is done: Animal experiments and measurement of in vivo response. Mice (CD1 female, age 11 weeks) were treated in accordance with the ethical guidelines adopted by Massachusetts General Hospital. […] Peptides and conjugates were administered at doses that allowed for differentiation between compounds with differing levels of in vivo activity^27. Statistical analyses were performed assuming Gaussian distribution of data. Mice (n=4 per compound) were injected subcutaneously with vehicle (10 mM citric acid/150 mM NaCl/0.05% Tween-80, pH 5.0) or vehicle containing PTH or conjugate at a dose of 35 nmol/kg body weight. […] Blood was withdrawn just before injection (t=0) or at times thereafter. Tail vein blood was collected and immediately analyzed. Blood Ca^2+ concentration was measured with a Siemens RapidLab 348 Ca2+/pH analyzer.

Another test concerns the target T1, human PTHR1 (Homo sapiens, UniProt Q03431).
T1 construct: expressed in transfected cells
T1 sequence (Q03431 27-593): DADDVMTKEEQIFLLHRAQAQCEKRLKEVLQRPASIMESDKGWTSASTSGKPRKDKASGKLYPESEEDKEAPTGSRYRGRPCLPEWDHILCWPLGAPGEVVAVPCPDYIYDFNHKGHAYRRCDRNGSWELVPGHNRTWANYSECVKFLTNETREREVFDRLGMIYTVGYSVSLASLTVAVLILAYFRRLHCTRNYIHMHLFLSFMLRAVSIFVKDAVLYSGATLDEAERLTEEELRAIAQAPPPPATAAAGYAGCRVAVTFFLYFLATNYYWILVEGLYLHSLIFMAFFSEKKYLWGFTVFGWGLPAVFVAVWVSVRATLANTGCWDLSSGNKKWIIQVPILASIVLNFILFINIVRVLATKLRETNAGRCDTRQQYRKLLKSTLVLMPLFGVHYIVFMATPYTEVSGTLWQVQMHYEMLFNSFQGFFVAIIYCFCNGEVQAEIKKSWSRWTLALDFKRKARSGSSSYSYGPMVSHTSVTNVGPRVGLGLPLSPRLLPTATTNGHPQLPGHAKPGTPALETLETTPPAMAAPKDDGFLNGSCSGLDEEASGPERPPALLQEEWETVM
Put plainly: β-arrestin2-YFP recruitment in HEK293 cells transiently transfected with human PTHR1 (microscopy). The test is classed as cell-based. Particulars: 30 nM PTH(1-34)-TMR; 100 nM conjugate or VHH; 30 min room temperature. As for the experimental part:
FIGS. 30A-30F: Assessment of β-arrestin recruitment. A HEK293-derived cell line stably expressing a β-arrestin2-YFP fusion^2 was transiently transfected with human PTHR1. […] (red) and the nuclei of all cells were counterstained with DAPI. […] Panels show the same field of view with signal for β-arrestin2-YFP. […] (FIG. 30E) The ligands or VHHs (and concentrations) applied to these cells are VHHPTHR (100 nM). (FIG. 30F) The ligands or VHHs (and concentrations) applied to these cells are Vehicle. Transfected cells were incubated with indicated ligands or VHHs at room temperature for 30 minutes. This solution was aspirated, and the cells were washed twice, fixed with paraformaldehyde, and imaged as described in methods. For each panel the bottom image corresponds to an expanded version of the inset marked by the rectangle in the top image.

A further test concerns the target T2, rat PTHR1 (Rattus norvegicus, UniProt P25961).
T2 construct: expressed in transfected cells
T2 sequence (P25961 27-591): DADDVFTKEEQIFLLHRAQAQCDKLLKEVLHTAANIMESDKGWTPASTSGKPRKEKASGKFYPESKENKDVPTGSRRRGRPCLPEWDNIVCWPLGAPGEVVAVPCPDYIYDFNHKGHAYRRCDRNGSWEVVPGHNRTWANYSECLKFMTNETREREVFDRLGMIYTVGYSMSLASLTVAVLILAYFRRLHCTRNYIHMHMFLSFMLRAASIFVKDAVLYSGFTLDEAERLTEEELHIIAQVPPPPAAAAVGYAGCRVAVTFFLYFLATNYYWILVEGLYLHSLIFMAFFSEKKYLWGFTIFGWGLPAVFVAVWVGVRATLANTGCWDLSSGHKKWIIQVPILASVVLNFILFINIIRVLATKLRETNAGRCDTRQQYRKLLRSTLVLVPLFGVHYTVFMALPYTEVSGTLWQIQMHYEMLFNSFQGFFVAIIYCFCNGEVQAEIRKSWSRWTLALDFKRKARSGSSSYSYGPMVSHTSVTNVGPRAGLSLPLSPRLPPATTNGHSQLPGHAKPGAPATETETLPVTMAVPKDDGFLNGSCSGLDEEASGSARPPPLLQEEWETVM
Put plainly: cAMP induction in HEK293 cells stably expressing rat PTHR1. The test is classed as cell-based. The settings on record: maximal cAMP response, normalized. How it is done:
Measurement of cAMP response. These assays were performed as previously described^27. […] Confluent monolayers of cells were pre-incubated with CO2 independent medium containing D-luciferin (0.5 mM) at 37° C. until a stable baseline level of luminescence was established (20 min). Varying concentrations of ligands were then added, and the time course of luminescence response was recorded using BioTek plate reader.
as §1

With `CC[C@H](C)[C@H](NC(=O)[C@H](CCC(=O)O)NC(=O)[C@H](CO)NC(=O)[C@@H](NC(=O)[C@@H](N)CO)C(C)C)C(=O)N[C@@H](CCC(N)=O)C(=O)N[C@@H](CC(C)C)C(=O)N[C@@H](CCSC)C(=O)N[C@@H](Cc1cnc[nH]1)C(=O)N[C@@H](CC(N)=O)C(=O)N[C@@H](CC(C)C)C(=O)NCC(=O)N[C@@H](CCCCN)C(=O)N[C@@H](Cc1cnc[nH]1)C(=O)N[C@@H](CC(C)C)C(=O)N[C@@H](CC(N)=O)C(=O)N[C@@H](CO)C(=O)N[C@@H](CCSC)C(=O)N[C@@H](CCC(=O)O)C(=O)N[C@@H](CCCN=C(N)N)C(=O)N[C@H](C(=O)N[C@@H](CCC(=O)O)C(=O)N[C@@H](Cc1c[nH]c2ccccc12)C(=O)N[C@@H](CC(C)C)C(=O)N[C@@H](CCCN=C(N)N)C(=O)N[C@@H](CCCCN)C(=O)N[C@@H](CCCCN)C(=O)N[C@@H](CC(C)C)C(=O)N[C@@H](CCC(N)=O)C(=O)N[C@@H](CC(=O)O)C(=O)N[C@H](C(=O)N[C@@H](Cc1cnc[nH]1)C(=O)N[C@@H](CC(N)=O)C(=O)N[C@@H](Cc1ccccc1)C(=O)O)C(C)C)C(C)C` [PTH(1-34)], in the test with PTHR1YFPΔECD (maximal cAMP response, normalized), the “Max (normalized ± SD), hPTHR1YFPΔECD” value is listed as 1.00 ± 0.00. The EC50 with PTHR1YFPΔECD (mean ± SD, Inactive = response <5% of maximal, read-out: EC50, cAMP induction, hPTHR1YFPΔECD) is 689 ± 301 nM. In addition, in the test with Mice (CD1 female), the “time of peak blood ionized calcium after injection” value was 1 to 2 h. Besides, the “blood ionized calcium response” value in the test on Mice (CD1 female) (n=4) is on record as “strong increase”. In addition, the “relocalization of YFP-tagged β-arrestin to puncta” value on human PTHR1 is recorded as “effectively stimulated”. The “Max (normalized ± SD), rPTHR1” value on rat PTHR1 is reported as 1.00 ± 0.00.

The term EC50 denotes the midpoint of the concentration-response curve.
